Experimental data reported in the supplement of paper PMC13380429.
± gives the standard deviation of the averaged measurements.

Legend:
Conditions in all cases: 72 h
[1] = system: Caco-2; assay: relative viability EC50 (midpoint between 100% and the lowest measured viability); higher = less toxic
[2] = system: U2OS; assay: as above
[3] = system: Vero E6; assay: as above
[4] = system: HepG2; assay: as above
[5] = system: Caco-2; assay: drug sensitivity score (DSS) for viability; higher = more toxic; extreme values may be limits of the assay
[6] = system: U2OS; assay: as above
[7] = system: Vero E6; assay: as above
[8] = system: HepG2; assay: as above
[9] = system: Caco-2; assay: cell viability relative to DMSO; higher = less toxic
[10] = system: U2OS; assay: as above
[11] = system: Vero E6; assay: as above
[12] = system: HepG2; assay: as above
[13] = system: Calu-3; assay: drug sensitivity score (DSS) for viability; higher = more toxic; extreme values may be limits of the assay
[14] = system: Calu-3; assay: cell viability relative to DMSO; higher = less toxic
[15] = system: Calu-3; assay: relative viability EC50 (midpoint between 100% and the lowest measured viability); higher = less toxic

Compound | relative viability EC50 [1] | relative viability EC50 [2] | relative viability EC50 [3] | relative viability EC50 [4] | drug sensitivity score [5] | drug sensitivity score [6] | drug sensitivity score [7] | drug sensitivity score [8] | cell viability ([9]; 1 nM) | cell viability ([9]; 10 nM) | cell viability ([9]; 100 nM) | cell viability ([9]; 1000 nM) | cell viability ([9]; 10000 nM) | cell viability ([10]; 1 nM) | cell viability ([10]; 10 nM) | cell viability ([10]; 100 nM) | cell viability ([10]; 1000 nM) | cell viability ([10]; 10000 nM) | cell viability ([11]; 1 nM) | cell viability ([11]; 10 nM) | cell viability ([11]; 100 nM) | cell viability ([11]; 1000 nM) | cell viability ([11]; 10000 nM) | cell viability ([12]; 1 nM) | cell viability ([12]; 10 nM) | cell viability ([12]; 100 nM) | cell viability ([12]; 1000 nM) | cell viability ([12]; 10000 nM) | drug sensitivity score [13] | cell viability ([14]; 1 nM) | cell viability ([14]; 10 nM) | cell viability ([14]; 100 nM) | cell viability ([14]; 1000 nM) | cell viability ([14]; 10000 nM) | relative viability EC50 [15]
CON [methoxyamine] | > 10 µM | > 10 µM | > 10 µM | > 10 µM | 0 | 0 | 0 | 0 | 102% | 102% | 99.9% | 96.9% | 100% | 99.2% | 103% | 96.7% | 103% | 96.4% | 108% | 94.6% | 99.3% | 106% | 106% | 110% | 110% | 102% | 99.7% | 96.8% | – | – | – | – | – | – | –
CC(C)(c1ccc(O)cc1)c1ccc(O)cc1 [bisphenol-A] | > 10 µM | > 10 µM | > 10 µM | > 10 µM | 0.1 | 0 | 0.1 | 0 | 92.2% | 111% | 102% | 97.3% | 88.8% | 101% | 109% | 99.6% | 107% | 102% | 107% | 105% | 99.2% | 98% | 88.6% | 98.7% | 94.4% | 103% | 94.6% | 106% | – | – | – | – | – | – | –
CN[C@@H]1[C@@H](O[C@H]2O[C@H](CO)[C@@H](N)[C@H](O)[C@H]2O)O[C@H]2C[C@@H](N)[C@@H](O[C@H]3[C@H](O)[C@@H](O)[C@H](N)C[C@@H]3N)O[C@@H]2[C@@H]1O [apramycin] | > 10 µM | > 10 µM | > 10 µM | > 10 µM | 0 | 0 | 0 | 0 | 98% | 89% | 104% | 104% | 92.9% | 105% | 100% | 92.8% | 104% | 99.9% | 102% | 95.3% | 93.2% | 99.9% | 102% | 106% | 98.1% | 107% | 99.3% | 97.5% | 2.1 | 97.8% | 99.6% | 100% | 91.5% | 74.8% | –
CC(C)(Oc1ccc(Cl)cc1)C(=O)N1CSCC1C(=O)O (stereo unspecified) [timofibrate] | > 10 µM | > 10 µM | > 10 µM | > 10 µM | 0 | 0 | 0 | 0 | 87.1% | 99.6% | 95.7% | 98.9% | 103% | 95.5% | 105% | 98.2% | 103% | 104% | 99.5% | 104% | 96% | 94.8% | 105% | 99% | 102% | 108% | 96.8% | 113% | – | – | – | – | – | – | –
O=C(O)CCCNC(=O)c1cccnc1 [pikamilone] | > 10 µM | > 10 µM | > 10 µM | > 10 µM | 0 | 0 | 0 | 0 | 99.8% | 98.3% | 98.4% | 95.6% | 99.8% | 106% | 97.4% | 103% | 99.4% | 104% | 102% | 105% | 102% | 102% | 98.4% | 107% | 113% | 99.8% | 110% | 94.6% | – | – | – | – | – | – | –
CC1=C(/C=C/C(C)=C/C=C/C(C)=C/C(=O)O)C(C)(C)CCC1 [tretinoin] | – | > 10 µM | > 10 µM | > 10 µM | 0.9 ± 1.1 | 0 | 0 | 0 | 103 ± 8.2% | 102 ± 10% | 97.5 ± 1.4% | 101 ± 1.9% | 74.5 ± 18% | 98.8 ± 0.28% | 95.3 ± 4% | 94.3 ± 2.3% | 95.6 ± 0.57% | 90.7 ± 0.85% | 102 ± 5.2% | 101 ± 1.9% | 99.7 ± 3.3% | 98.3 ± 2.1% | 101 ± 1.9% | 99.8 ± 2.9% | 102 ± 7% | 109.5 ± 0.64% | 101 ± 3.5% | 103 ± 6.5% | 1.2 ± 0.28 | 106 ± 6.3% | 97.7 ± 1.7% | 106 ± 3.3% | 87.5 ± 2.5% | 85.4 ± 4.5% | > 10 µM
COc1ccc(C2CC(c3c(O)cc(C)oc3=O)=NCCS2)c(OC)c1 (stereo unspecified) | 0.73 µM | 1.1 µM | 0.391 µM | 0.328 µM | 7.1 | 7.1 | 11.8 | 11.2 | 103% | 98.7% | 99.5% | 64.4% | 47.4% | 102% | 97% | 93.9% | 69.8% | 33.2% | 100% | 105% | 101% | 35.9% | 31% | 94.9% | 106% | 92.8% | 44.4% | 36.6% | 4.4 | 105% | 105% | 97.7% | 80.4% | 57% | –
Cc1cc(Nc2ncnc3ccc(NC4=NC(C)(C)CO4)cc23)ccc1Oc1ccn2ncnc2c1 [tucatinib] | – | > 10 µM | > 10 µM | > 10 µM | 3.8 | 0.1 | 2 | 0.2 | 98.9% | 103% | 99.8% | 92.5% | 52% | 100% | 104% | 95.3% | 98.2% | 87.9% | 99.4% | 95.8% | 95.1% | 86.9% | 75.6% | 101% | 96% | 103% | 98.4% | 87.1% | 13.7 | 105% | 93.3% | 70.7% | 47.3% | 28.4% | 0.191 µM
CCCCCCCCCCCCCCCCCCCCCC(=O)O [AGP-103] | > 10 µM | > 10 µM | > 10 µM | > 10 µM | 0 | 0 | 0 | 0 | 104% | 90.4% | 96.5% | 106% | 99.9% | 99.8% | 93.9% | 98.3% | 101% | 102% | 105% | 106% | 100% | 97.9% | 99.1% | 97.6% | 94.8% | 98.5% | 95.5% | 92.7% | – | – | – | – | – | – | –
CC(=O)Oc1ccc(C(c2ccc(OC(C)=O)cc2)c2ccccn2)cc1 [bisacodyl] | – | > 10 µM | > 10 µM | > 10 µM | 4.4 | 0.6 | 1 | 0 | 92.8% | 84.9% | 107% | 80.5% | 60.3% | 101% | 102% | 100% | 89.9% | 87.3% | 99.6% | 94.1% | 97.1% | 95.7% | 80.7% | 98.3% | 99.5% | 104% | 95.1% | 100% | 0.1 | 111% | 105% | 102% | 99.2% | 88.2% | > 10 µM
CC(C)(C)C(=O)OCOC(=O)[C@@H]1N2C(=O)[C@@H](NC(=O)[C@H](N)c3ccccc3)[C@H]2SC1(C)C [pivampicillin] | – | > 10 µM | > 10 µM | > 10 µM | – | 0 | 0 | 0.2 | – | – | – | – | – | 98.4% | 94% | 101% | 93.3% | 97.6% | 103% | 104% | 101% | 99.4% | 102% | 114% | 97.7% | 91.9% | 82% | 96.9% | 0 | 110% | 108% | 97.7% | 98.4% | 117% | > 10 µM
Cc1cc2c(N3CCCC3)nc(N3CCCC3)nc2n1C | – | > 10 µM | > 10 µM | > 10 µM | 1.5 | 0 | 0 | 0.7 | 103% | 92.2% | 96.9% | 97.6% | 71.8% | 96.2% | 101% | 101% | 101% | 93.5% | 104% | 96% | 104% | 99.3% | 93.5% | 109% | 94.3% | 101% | 100% | 78.4% | 0 | 103% | 110% | 93.5% | 94.5% | 106% | > 10 µM
NCCCCN=C(N)N [agmatine] | – | > 10 µM | > 10 µM | > 10 µM | 3.4 | 0 | 0 | 0 | 114% | 82.8% | 92.5% | 82.5% | 72.2% | 103% | 96.3% | 100% | 100% | 99.2% | 103% | 97.6% | 97.4% | 104% | 88.6% | 95.5% | 96.6% | 99.4% | 110% | 94.7% | 0 | 94.8% | 95.7% | 93.2% | 89.4% | 99.9% | > 10 µM
